The values that follow come from patent US20180050993A1, “NOVEL FLUORINATED DERIVATIVES AS EGFR INHIBITORS USEFUL FOR TREATING CANCERS” (Trillium Therapeutics Inc., priority 2015, published 2018).

The nature of data set [1]: Mouse liver microsomal stability. The data set is classed as in vitro ADME. The note with it: stability in pooled mouse (CD-1, male) liver microsomes 0.5 mg/ml, compound 1 μM, parent compound by LC/MS, in % (unit assumed). The protocol: (§1) Working stocks were initially diluted to a concentration of 40.0 μM in 0.1 M potassium phosphate buffer before addition to the reaction vials. Pooled mouse (CD-1, male) or human (50 donors) liver microsomes were utilized at a final concentration of 0.5 mg/ml. Duplicate wells were used for each time point (0 and 30 minutes). Reactions were carried out at 37° C. in a shaker, and the final concentration of DMSO was kept constant at 0.01%. The final volume for each reaction was 100 μL, which includes the addition of an NADPH-Regeneration solution (NRS) mix. This NRS mix is comprised of glucose 6-phosphate dehydrogenase (0.4 U/mL), NADP+ (1.3 mM), MgCl2 (3.3 mM), and glucose 6-phosphate (3.3 mM) in assay mixtures. Upon completion of the 30 minute time point, reactions were terminated by the addition of 1.5-volumes (150 μL) of ice-cold, acetonitrile with 0.5% formic acid and internal standard. Samples were then centrifuged at 4,000 rpm for 10 minutes to remove debris and precipitated protein. Approximately 150 μL of supernatant was subsequently transferred to a new 96 well microplate for LC/MS analysis.
(§2) Narrow-window mass extraction LC/MS analysis was performed for all samples using a Waters Xevo quadrupole time-of-flight (QTof) mass spectrometer and an ACQUITY UPLC system, to determine relative peak areas of parent compound.
(§3) Human and mouse liver microsomes contain a wide variety of drug metabolizing enzymes and are commonly used to support in vitro ADME (absorption, distribution, metabolism and excretion) studies. These microsomes are used to examine the potential first-pass metabolism by-products of orally administered drugs. Representative compounds of the application were evaluated for their stability in human and mouse liver microsomes.

A short description of data set [2]: Human liver microsomal stability. The note with it: stability in pooled human (50 donors) liver microsomes 0.5 mg/ml, compound 1 μM, parent compound by LC/MS. The data set is classed as in vitro ADME. Here is the method: as §1, §2, §3
Background: Microsomes from liver hold many membrane-bound enzymes, among them those of drug oxidation.

A short description of data set [3]: Brain and plasma concentrations after oral gavage in rat, sampling to 4 hours (Table 4). It counts as in vivo. The note with it: Table 4 (4 hours); for AUClast / Cmax / Tmax: brain tissue, PO 50 mg/kg; for Cmax / Tmax / Kp at 4 h: male, Sprague-Dawley (SD); for Kp at 4 h: brain/plasma, po, 50 mg/kg.
A further data set relates to EGFR(L747-T751del, Sins). The data set can be described thus: Kinome screen at 300 nM (qPCR competition binding).
A further data set deals with T1, EGFR (Homo sapiens, UniProt P00533).
T1 construct: purchased Reaction Biology
T1 sequence (P00533 25-1210): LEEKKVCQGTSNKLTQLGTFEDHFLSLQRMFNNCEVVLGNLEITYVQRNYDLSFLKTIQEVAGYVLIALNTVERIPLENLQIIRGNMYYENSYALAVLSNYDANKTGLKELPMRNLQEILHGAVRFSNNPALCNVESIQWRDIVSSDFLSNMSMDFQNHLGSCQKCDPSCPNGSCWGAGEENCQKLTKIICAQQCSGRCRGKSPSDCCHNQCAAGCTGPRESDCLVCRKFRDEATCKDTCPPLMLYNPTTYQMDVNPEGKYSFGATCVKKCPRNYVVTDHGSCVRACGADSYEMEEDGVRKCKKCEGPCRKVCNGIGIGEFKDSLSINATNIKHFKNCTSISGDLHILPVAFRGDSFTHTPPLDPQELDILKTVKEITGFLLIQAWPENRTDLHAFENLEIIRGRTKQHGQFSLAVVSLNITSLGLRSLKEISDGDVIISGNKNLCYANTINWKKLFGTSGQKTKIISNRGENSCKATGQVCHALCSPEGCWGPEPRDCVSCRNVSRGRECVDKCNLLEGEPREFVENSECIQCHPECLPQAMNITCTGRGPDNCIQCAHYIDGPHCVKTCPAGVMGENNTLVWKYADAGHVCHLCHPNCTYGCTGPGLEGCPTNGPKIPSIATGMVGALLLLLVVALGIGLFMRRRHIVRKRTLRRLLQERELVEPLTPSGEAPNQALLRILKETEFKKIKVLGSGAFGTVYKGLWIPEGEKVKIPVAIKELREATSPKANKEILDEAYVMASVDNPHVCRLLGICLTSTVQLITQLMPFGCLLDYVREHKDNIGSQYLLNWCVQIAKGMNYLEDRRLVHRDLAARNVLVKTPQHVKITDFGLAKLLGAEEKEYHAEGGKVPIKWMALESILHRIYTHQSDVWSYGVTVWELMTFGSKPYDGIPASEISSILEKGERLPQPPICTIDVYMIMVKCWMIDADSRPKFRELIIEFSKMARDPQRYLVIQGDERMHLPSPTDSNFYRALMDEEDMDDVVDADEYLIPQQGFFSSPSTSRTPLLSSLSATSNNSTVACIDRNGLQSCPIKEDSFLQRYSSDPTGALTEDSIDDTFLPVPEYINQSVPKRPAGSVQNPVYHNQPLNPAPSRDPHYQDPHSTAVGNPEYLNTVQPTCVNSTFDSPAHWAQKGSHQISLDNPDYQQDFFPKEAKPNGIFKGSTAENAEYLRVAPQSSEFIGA
As to the kind of experiment: Kinase HotSpot profiling (Reaction Biology), 33P-ATP filter-binding. The data set is classed as biochemical. The note with it: WT EGFR. The protocol: (§4) Base Reaction buffer; 20 mM Hepes (pH 7.5), 10 mM MgCl2, 1 mM EGTA, 0.02% Brij35, 0.02 mg/ml BSA, 0.1 mM Na3VO4, 2 mM DTT, 1% DMSO
(§5) *Required cofactors are added individually to each kinase reaction
(§6) 1. The indicated substrate was prepared in fresh Base Reaction Buffer.
(§7) 2. Any required cofactors were added to the substrate solution above.
(§8) 3. Indicated kinase was added into the substrate solution and gently mixed.
(§9) 4. Compounds in DMSO were added into the kinase reaction mixture by Acoustic technology (Echo550; nanoliter range) and incubated for 20 minutes at room temperature.
(§10) 5. 33P-ATP (specific activity 10 μCi/μl) was added into the reaction mixture to initiate the reaction.
(§11) 6. The kinase reaction was incubated for 2 hours at room temperature
(§12) 7. Reactions were spotted onto P81 ion exchange paper.
(§13) 8. Kinase activity was detected by filter-binding method.
(§14) Representative compounds of Formula I were evaluated against WT EGFR and mutant EGFR (L858R and L858R, T790M) kinases. IC50 concentrations are illustrated in Table 9.

In another data set the target is T2, EGFR (L858R) (Homo sapiens, UniProt P00533, L858R).
T2 construct: purchased Reaction Biology
T2 sequence (P00533 25-1210 L858R): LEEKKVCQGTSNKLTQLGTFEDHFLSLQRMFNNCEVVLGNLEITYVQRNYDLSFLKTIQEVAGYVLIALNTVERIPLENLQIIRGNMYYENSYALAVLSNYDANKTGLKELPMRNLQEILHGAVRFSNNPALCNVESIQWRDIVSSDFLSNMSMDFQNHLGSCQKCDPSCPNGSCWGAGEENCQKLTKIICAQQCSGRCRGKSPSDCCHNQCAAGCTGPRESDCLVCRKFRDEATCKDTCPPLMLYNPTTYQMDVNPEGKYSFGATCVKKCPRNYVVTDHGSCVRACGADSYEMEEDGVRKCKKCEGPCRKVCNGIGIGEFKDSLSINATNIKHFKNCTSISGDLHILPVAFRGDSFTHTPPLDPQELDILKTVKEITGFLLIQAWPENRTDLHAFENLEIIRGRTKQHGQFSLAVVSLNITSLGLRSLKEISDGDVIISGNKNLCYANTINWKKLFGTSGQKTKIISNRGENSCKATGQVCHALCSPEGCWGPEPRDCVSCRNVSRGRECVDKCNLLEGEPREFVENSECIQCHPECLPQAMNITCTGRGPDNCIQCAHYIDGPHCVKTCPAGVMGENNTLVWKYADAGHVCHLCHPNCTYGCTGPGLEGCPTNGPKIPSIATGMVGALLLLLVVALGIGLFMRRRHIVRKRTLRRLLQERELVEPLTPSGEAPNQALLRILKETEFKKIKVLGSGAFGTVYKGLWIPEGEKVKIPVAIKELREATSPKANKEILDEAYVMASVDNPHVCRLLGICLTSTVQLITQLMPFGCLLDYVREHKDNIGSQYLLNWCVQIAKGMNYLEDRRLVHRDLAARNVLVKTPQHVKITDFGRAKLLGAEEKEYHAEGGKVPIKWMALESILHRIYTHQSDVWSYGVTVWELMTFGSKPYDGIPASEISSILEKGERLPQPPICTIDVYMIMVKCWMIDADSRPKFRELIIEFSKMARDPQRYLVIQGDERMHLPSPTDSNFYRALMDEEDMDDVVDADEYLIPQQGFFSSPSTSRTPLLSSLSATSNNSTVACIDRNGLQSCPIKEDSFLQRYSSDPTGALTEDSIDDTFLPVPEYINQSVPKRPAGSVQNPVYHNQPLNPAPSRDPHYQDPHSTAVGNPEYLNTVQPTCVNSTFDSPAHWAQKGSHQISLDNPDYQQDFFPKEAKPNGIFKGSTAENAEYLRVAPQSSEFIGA
The description is as above. It counts as biochemical. The note with it: mutant EGFR L858R. The protocol:
as §4, §5, §6, §7, §8, §9, §10, §11, §12, §13, §14

In another data set the target is T3, EGFR (L858R, T790M) (Homo sapiens, UniProt P00533, L858R/T790M).
T3 construct: purchased Reaction Biology
T3 sequence (P00533 25-1210 T790M/L858R): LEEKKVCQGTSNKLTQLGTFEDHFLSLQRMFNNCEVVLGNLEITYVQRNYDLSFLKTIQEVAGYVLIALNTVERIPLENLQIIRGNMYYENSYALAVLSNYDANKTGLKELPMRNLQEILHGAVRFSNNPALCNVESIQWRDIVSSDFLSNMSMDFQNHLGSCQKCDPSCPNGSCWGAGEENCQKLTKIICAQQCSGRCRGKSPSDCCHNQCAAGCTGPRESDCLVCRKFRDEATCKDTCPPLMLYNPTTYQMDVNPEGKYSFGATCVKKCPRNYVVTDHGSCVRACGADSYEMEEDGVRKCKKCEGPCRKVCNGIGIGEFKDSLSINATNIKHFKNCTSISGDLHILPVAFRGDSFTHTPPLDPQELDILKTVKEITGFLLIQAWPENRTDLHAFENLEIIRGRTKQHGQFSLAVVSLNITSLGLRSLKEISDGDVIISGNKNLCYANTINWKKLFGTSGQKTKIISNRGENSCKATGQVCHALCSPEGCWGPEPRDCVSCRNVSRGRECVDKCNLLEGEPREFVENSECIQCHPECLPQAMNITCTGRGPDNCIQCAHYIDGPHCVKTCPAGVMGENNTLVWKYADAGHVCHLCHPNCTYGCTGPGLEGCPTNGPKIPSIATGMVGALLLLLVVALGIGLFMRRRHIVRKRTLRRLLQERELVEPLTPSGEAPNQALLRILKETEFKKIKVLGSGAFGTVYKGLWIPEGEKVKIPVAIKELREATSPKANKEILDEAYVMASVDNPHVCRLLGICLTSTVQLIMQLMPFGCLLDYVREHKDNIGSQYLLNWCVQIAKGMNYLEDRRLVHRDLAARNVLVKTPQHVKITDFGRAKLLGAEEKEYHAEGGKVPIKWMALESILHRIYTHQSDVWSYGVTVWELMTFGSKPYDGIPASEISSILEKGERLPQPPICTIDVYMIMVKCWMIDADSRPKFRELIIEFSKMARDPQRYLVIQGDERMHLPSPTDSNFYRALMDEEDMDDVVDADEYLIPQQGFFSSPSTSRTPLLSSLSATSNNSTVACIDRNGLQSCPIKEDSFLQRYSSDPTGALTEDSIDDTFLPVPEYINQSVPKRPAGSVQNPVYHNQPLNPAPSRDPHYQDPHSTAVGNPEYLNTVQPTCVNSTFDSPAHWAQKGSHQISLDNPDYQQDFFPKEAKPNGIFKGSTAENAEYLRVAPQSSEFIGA
The data set is described as above. The note with it: mutant EGFR L858R. The data set is classed as biochemical. Here is the method: as §4, §5, §6, §7, §8, §9, §10, §11, §12, §13, §14

Data set [4] is described as follows: Brain concentrations after PO administration in rat, peak at 8 hours (Table 5). It counts as in vivo. The note with it: Table 5 (8 hours); for Kp at 8 h: brain/plasma, po, 50 mg/kg.
The test system of a further data set is HCC827. As to the kind of experiment: Comparison with 1st generation inhibitors against a lung cancer cell line (HCC827). It counts as cell-based. The note with it: Homo sapiens, read-out: Biochemical IC50.
The target of data set [5] is T4, EPHA6 (Homo sapiens, UniProt Q9UF33).
T4 sequence (Q9UF33 23-1036): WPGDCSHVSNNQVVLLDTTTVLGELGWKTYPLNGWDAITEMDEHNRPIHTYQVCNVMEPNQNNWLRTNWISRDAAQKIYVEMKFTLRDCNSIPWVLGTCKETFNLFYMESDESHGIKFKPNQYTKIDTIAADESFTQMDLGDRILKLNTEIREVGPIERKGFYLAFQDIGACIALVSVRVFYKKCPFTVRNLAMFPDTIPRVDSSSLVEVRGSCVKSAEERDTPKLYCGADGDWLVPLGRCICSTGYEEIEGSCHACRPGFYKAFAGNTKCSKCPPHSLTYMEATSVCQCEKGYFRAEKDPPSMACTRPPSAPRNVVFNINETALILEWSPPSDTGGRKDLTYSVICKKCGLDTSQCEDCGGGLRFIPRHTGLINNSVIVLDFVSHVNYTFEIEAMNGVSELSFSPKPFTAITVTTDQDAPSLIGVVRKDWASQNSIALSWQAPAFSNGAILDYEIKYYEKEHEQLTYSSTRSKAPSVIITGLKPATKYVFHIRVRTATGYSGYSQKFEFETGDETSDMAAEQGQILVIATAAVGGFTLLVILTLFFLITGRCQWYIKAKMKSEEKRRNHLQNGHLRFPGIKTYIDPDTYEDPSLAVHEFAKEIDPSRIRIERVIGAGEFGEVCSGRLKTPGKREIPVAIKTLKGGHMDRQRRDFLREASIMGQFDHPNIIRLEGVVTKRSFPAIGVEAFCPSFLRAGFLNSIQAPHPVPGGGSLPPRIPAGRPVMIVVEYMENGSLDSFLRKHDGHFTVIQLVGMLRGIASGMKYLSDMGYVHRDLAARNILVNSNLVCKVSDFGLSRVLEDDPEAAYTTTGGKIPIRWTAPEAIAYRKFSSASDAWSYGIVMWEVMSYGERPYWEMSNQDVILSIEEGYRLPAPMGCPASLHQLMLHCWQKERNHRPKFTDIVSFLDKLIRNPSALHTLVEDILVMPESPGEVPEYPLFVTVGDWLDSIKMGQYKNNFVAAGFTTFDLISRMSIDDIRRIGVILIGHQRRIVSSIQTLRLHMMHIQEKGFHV
The data set can be described thus: Kinome screen at 300 nM (qPCR competition binding). Also noted: purchased DiscoveRx; host or cells: E. coli BL21-derived (T7 phage) or HEK-293. Conditions: result in words. Background: In qPCR the cycle at which signal appears reflects the starting amount.

Data set [6] concerns the target T4, EPHA6. As to the kind of experiment: Binding constants (Kd) for EPHA6, kinase competition binding with qPCR readout.
The target of another data set is T5, P-gp (Homo sapiens, UniProt P08183).
T5 construct: host or cells: Caco-2 (C2BBe1)
T5 sequence (P08183 whole entry): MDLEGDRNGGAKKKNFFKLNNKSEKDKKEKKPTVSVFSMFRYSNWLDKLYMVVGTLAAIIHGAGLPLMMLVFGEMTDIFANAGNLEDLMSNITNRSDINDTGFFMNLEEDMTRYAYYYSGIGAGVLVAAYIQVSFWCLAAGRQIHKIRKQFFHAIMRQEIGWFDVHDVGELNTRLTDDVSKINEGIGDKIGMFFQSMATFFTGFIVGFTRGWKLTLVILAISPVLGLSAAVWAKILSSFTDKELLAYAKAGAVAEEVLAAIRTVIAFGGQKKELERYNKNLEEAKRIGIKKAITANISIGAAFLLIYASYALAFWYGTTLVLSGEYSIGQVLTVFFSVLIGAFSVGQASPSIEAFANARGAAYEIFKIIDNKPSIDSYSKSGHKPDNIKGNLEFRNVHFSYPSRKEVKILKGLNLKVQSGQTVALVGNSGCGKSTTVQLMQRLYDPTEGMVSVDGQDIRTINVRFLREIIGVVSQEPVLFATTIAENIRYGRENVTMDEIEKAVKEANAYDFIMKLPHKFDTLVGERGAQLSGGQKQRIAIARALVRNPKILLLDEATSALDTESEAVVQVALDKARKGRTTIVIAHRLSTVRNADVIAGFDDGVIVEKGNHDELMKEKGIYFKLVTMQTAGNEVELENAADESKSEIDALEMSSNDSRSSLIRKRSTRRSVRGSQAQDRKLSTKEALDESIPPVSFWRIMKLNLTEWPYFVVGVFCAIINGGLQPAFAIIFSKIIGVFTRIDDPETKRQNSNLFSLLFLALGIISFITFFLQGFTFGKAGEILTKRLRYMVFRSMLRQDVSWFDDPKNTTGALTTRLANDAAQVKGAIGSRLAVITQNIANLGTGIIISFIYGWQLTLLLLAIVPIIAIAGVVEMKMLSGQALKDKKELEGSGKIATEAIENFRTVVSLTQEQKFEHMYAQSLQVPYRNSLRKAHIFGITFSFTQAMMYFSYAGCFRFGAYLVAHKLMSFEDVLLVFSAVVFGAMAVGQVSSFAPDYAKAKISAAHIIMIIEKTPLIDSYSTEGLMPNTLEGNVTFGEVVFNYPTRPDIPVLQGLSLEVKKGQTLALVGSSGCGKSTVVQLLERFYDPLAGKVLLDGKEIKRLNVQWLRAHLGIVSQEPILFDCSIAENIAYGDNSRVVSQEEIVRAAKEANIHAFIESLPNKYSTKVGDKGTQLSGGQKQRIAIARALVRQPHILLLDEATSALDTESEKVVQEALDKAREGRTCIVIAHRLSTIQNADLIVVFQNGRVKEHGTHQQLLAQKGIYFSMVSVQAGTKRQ
As to the kind of experiment: Evaluation of P-gp efflux in Caco-2 cell monolayers.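 Note: Caco-2 monolayers dosed apically or basolaterally with test compound at 5 µM in HBSS with HEPES and glucose, 37 °C, donor and receiver sampled after 120 min, LC/MS peak areas.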 The data set is classed as in vitro ADME.

Where [7] appears, read: Sprague-Dawley, brain, PO 50 mg/kg.

Structures are written as SMILES. Where a name gives a salt, the structure may show the parent alone. Read-outs that look alike come from different tables or passages of the source.

The term Cmax denotes the peak of the concentration-time curve. As usually defined, the Tmax is the time from dosing to the highest level. What is called IC50 is the midpoint of a concentration-inhibition curve. The Kd is a measure of binding affinity in units of concentration. Low readings indicate a tighter complex, high ones a looser complex. As a reminder, the Papp A→B is how fast a substance crosses the layer from the apical side. A low value points to slow passage. The term Papp B→A denotes how fast a substance crosses the layer from the basolateral side. Usually efflux ratio stands for a quotient of directional permeabilities that is used to spot active efflux.

Regarding `C#Cc1cccc(Nc2ncnc3cc(OCCOC)c(OCCOC)cc23)c1` [Erlotinib, N-(3-ethynylphenyl)-6,7-bis(2-methoxyethoxy)quinazolin-4-amine, reference compound], the “MLM (30 min)” value in data set [1] is given as 56.3. The HLM (30 min) in data set [2] was 75.5%. In data set [3], the AUClast stood at 4319 ng·h/g, the highest level (Cmax) was 1710 ng/g and the Tmax was 4 h. In the data set on EGFR(L747-T751del, Sins), the “% Control @ 300 nM” value came out at 0.12%.
Turning to `COc1cc2ncnc(Nc3ccc(F)c(Cl)c3F)c2cc1OCCCN1CCC(OC(F)F)CC1` [2(q), N-(3-chloro-2,4-difluoro-phenyl)-6-[3-[4-(difluoromethoxy)-1-piperidyl]propoxy]-7-methoxy-quinazolin-4-amine], the concentration for half-maximal inhibition (IC50) at EGFR amounted to 0.0434 nM; on EGFR (L858R) it was 0.0142 nM; on EGFR (L858R, T790M), 4010 nM.
The corresponding values for `COc1cc2ncnc(Nc3ccc(F)c(Cl)c3F)c2cc1OC(=O)N1CC[C@@H](COC(F)F)C1` [2(Qq), [4-(3-chloro-2,4-difluoro-anilino)-7-methoxy-quinazolin-6-yl] (3R)-3-(difluoromethoxymethyl)pyrrolidine-1-carboxylate] are 0.0138 nM, 0.0164 nM and 6820 nM.
As to `Fc1c(Nc2ncnc3cc(OCCOC(F)F)c(OCCOC(F)F)cc23)ccc(Cl)c1Cl` [Compound 2A•HCl, N-(3,4-dichloro-2-fluoro-phenyl)-6,7-bis[2 (difluoromethoxy)ethoxy]quinazolin-4-amine], the figures for the Cmax in data set [4] (setting [7]) and in [3] were 5610 ng/g and 6980 ng/g, respectively. The time to peak (Tmax) in data set [4] (setting [7]) stood at 8 h; in [3], 4 h. The Kp at 8 h in [4] (Sprague-Dawley, read-out: AUCLast Ratio (Brain/Plasma)) came out at 1.5; in data set [4] (Sprague-Dawley, read-out: Cmax Ratio (Brain/Plasma)), 1.72. Moreover, the AUCInf in [4] (brain, PO 50 mg/kg) came out at 102348 ng·h/g. The AUClast was determined as 101853 ng·h/g in data set [4] (brain, PO 50 mg/kg) and 22593 ng·h/g in [3]. Moreover, in [1] (listed as 2(a)•HCl), the “MLM (30 min)” value is reported as 91.7. For the same molecule, the HLM (30 min) in [2] (listed as 2(a)•HCl) was 97.4%. In addition, the Kp at 4 h in [3] (read-out: AUCLast Ratio (Brain/Plasma)) was 1.69; in data set [3] (read-out: Cmax Ratio (Brain/Plasma)), 1.81. Further, in the data set on HCC827, the IC50 amounted to 21 nM. Further, at EPHA6 [5], the “selectivity over erlotinib for the ephrin receptor kinase, EPHA6” value is on record as “did show selectivity over erlotinib”. The molecule further had a dissociation constant (Kd) at EPHA6 [6] of 9.1 nM. The recovery at 120 min, 5 μM was determined as 43.4% on P-gp (Caco-2, pH 7.4, with none (verapamil 0 μM), Caco-2, Verapamil 0 μM, read-out: Recovery (%) AP-BL); 57.1% at P-gp (Caco-2, pH 7.4, with none (verapamil 0 μM), Caco-2, Verapamil 0 μM, read-out: Recovery (%) BL-AP); 55.5% at P-gp (Caco-2, pH 7.4, with verapamil 100 μM, Caco-2, Verapamil 100 μM, read-out: Recovery (%) AP-BL); 83.2% on P-gp (Caco-2, pH 7.4, with verapamil 100 μM, Caco-2, Verapamil 100 μM, read-out: Recovery (%) BL-AP). In addition, the Papp A→B at 120 min, 5 μM at P-gp (pH 7.4, Caco-2, Verapamil 0 μM) was 0.58 ×10⁻⁶ cm/s. This molecule also registered a basolateral-to-apical permeability (Papp B→A) at 120 min, 5 μM at P-gp (pH 7.4, Caco-2, Verapamil 0 μM) of 0.35 ×10⁻⁶ cm/s. Moreover, on P-gp (pH 7.4, Caco-2, Verapamil 0 μM), the efflux ratio at 120 min, 5 µM is 0.59.
